Data published in patent US20240101521A1, “DIAMINOTRIAZINE COMPOUNDS” (BASF SE, priority 2021, published 2024).

Assays:
Assay in all cases: greenhouse pre-emergence herbicidal test
Format in all cases: in vivo
Conditions in all cases: scale 0 to 100
Abutilon theophrasti = tested on: Abutilon theophrasti
Description: (§1) The culture containers used were plastic flowerpots containing loamy sand with approximately 3.0% of humus as the substrate. The seeds of the test plants were sown separately for each species.
(§2) For the pre-emergence treatment, the active ingredients, which had been suspended or emulsified in water, were applied directly after sowing by means of finely distributing nozzles. The containers were irrigated gently to promote germination and growth and subsequently covered with transparent plastic hoods until the plants had rooted. This cover caused uniform germination of the test plants, unless this had been impaired by the active ingredients. For the post-emergence treatment, the test plants were first grown to a height of 3 to 15 cm, depending on the plant habit, and only then treated with the active ingredients which had been suspended or emulsified in water. For this purpose, the test plants were either sown directly and grown in the same containers, or they were first grown separately as seedlings and transplanted into the test containers a few days prior to treatment.
(§3) Depending on the species, the plants were kept at 10-25° C. or 20-35° C., respectively.
(§4) The test period extended over 2 to 4 weeks. During this time, the plants were tended, and their response to the individual treatments was evaluated.
(§5) Evaluation was carried out using a scale from 0 to 100. 100 means no emergence of the plants, or complete destruction of at least the aerial moieties, and 0 means no damage, or normal course of growth. A moderate herbicidal activity is given at values of at least 60, a good herbicidal activity is given at values of at least 70, and a very good herbicidal activity is given at values of at least 85.
(§6) The plants used in the greenhouse experiments were of the following species: […]

Echinochloa crus-galli = tested on: Echinochloa crus-galli
Description: as §1, §2, §3, §4, §5, §6

Setaria faberi = tested on: Setaria faberi
Description: as §1, §2, §3, §4, §5, §6

Amaranthus retroflexus = tested on: Amaranthus retroflexus
Description: as §1, §2, §3, §4, §5, §6

| SMILES | herbicidal activity (Echinochloa crus-galli; pre-emergence, 62 g/ha) [%] | herbicidal activity (Setaria faberi; pre-emergence, 62 g/ha) [%] | herbicidal activity (Amaranthus retroflexus; pre-emergence, 62 g/ha) [%] | further results |
| --- | --- | --- | --- | --- |
| COc1c(Br)cc(F)c(F)c1Nc1nc(N)nc(C(C)(C)F)n1 [Example 6, N4-(5-Bromo-2,3-difluoro-6-methoxy-phenyl)-6-(1-fluoro-1-methyl-ethyl)-1,3,5-triazine-2,4-diamine] | – | – | – | herbicidal activity (Abutilon theophrasti; pre-emergence, 125 g/ha): 100%; herbicidal activity (Echinochloa crus-galli; pre-emergence, 125 g/ha): 100%; herbicidal activity (Setaria faberi; pre-emergence, 125 g/ha): 100% |
| COc1c(Cl)cc(F)c(F)c1Nc1nc(N)nc(C(C)(C)F)n1 [Example 7, N4-(5-Chloro-2,3-difluoro-6-methoxy-phenyl)-6-(1-fluoro-1-methyl-ethyl)-1,3,5-triazine-2,4-diamine] | – | – | – | herbicidal activity (Abutilon theophrasti; pre-emergence, 125 g/ha): 100%; herbicidal activity (Echinochloa crus-galli; pre-emergence, 125 g/ha): 100%; herbicidal activity (Setaria faberi; pre-emergence, 125 g/ha): 100% |
| COc1c(Br)cc(Br)c(F)c1Nc1nc(N)nc(C(C)(C)F)n1 [Example 8] | – | – | – | herbicidal activity (Abutilon theophrasti; pre-emergence, 125 g/ha): 100%; herbicidal activity (Echinochloa crus-galli; pre-emergence, 125 g/ha): 100%; herbicidal activity (Setaria faberi; pre-emergence, 125 g/ha): 100% |
| COc1c(Br)cc(Br)c(F)c1Nc1nc(N)nc(C2(F)CCCCC2)n1 [Example 9] | – | – | – | herbicidal activity (Abutilon theophrasti; pre-emergence, 250 g/ha): 90%; herbicidal activity (Amaranthus retroflexus; pre-emergence, 250 g/ha): 100%; herbicidal activity (Setaria faberi; pre-emergence, 250 g/ha): 95% |
| COc1c(Cl)cc(F)c(F)c1Nc1nc(N)nc(C2(F)CCCCC2)n1 [Example 10] | – | – | – | herbicidal activity (Abutilon theophrasti; pre-emergence, 250 g/ha): 100%; herbicidal activity (Amaranthus retroflexus; pre-emergence, 250 g/ha): 100%; herbicidal activity (Setaria faberi; pre-emergence, 250 g/ha): 100% |
| CC#CCOc1c(Br)cc(F)c(F)c1Nc1nc(N)nc(C2(F)CC2)n1 [Example 56] | – | – | – | herbicidal activity (Abutilon theophrasti; pre-emergence, 62,5 g/ha): 90%; herbicidal activity (Echinochloa crus-galli; pre-emergence, 62,5 g/ha): 90%; herbicidal activity (Setaria faberi; pre-emergence, 62,5 g/ha): 100% |
| CC#CCOc1c(Cl)cc(F)c(F)c1Nc1nc(N)nc(C2(F)CC2)n1 [Example 57] | – | – | – | herbicidal activity (Abutilon theophrasti; pre-emergence, 31 g/ha): 98%; herbicidal activity (Echinochloa crus-galli; pre-emergence, 31 g/ha): 100%; herbicidal activity (Setaria faberi; pre-emergence, 31 g/ha): 100% |
| CC#CCOc1c(Cl)cc(F)c(F)c1Nc1nc(N)nc(C2(F)CCCC2)n1 [Example 58] | – | – | – | herbicidal activity (Abutilon theophrasti; pre-emergence, 62,5 g/ha): 100%; herbicidal activity (Echinochloa crus-galli; pre-emergence, 62,5 g/ha): 100%; herbicidal activity (Setaria faberi; pre-emergence, 62,5 g/ha): 100% |
| COc1c(Cl)cc(Cl)c(F)c1Nc1nc(N)nc(C(C)(C)F)n1 [Example 59] | – | – | – | herbicidal activity (Abutilon theophrasti; pre-emergence, 62,5 g/ha): 100%; herbicidal activity (Echinochloa crus-galli; pre-emergence, 62,5 g/ha): 95%; herbicidal activity (Setaria faberi; pre-emergence, 62,5 g/ha): 100% |
| CC#CCOc1c(Br)cc(Br)c(F)c1Nc1nc(N)nc(C(C)(C)F)n1 [Example 64] | 100 | 100 | – | herbicidal activity (Abutilon theophrasti; pre-emergence, 62 g/ha): 100% |
| C#CCOc1c(Br)cc(Br)c(F)c1Nc1nc(N)nc(C(C)(C)F)n1 [Example 65] | 100 | 100 | – | herbicidal activity (Abutilon theophrasti; pre-emergence, 62 g/ha): 100% |
| C#CCOc1c(C)cc(Br)c(F)c1Nc1nc(N)nc(C(C)(C)F)n1 [Example 67] | 100 | 100 | 100 | – |
| CC#CCOc1c(C)cc(Br)c(F)c1Nc1nc(N)nc(C(C)(C)F)n1 [Example 68] | 100 | 100 | 100 | – |
| COc1c(C)ccc(F)c1Nc1nc(N)nc(C(C)(C)F)n1 [Example 69] | 100 | 100 | 100 | – |
| CC#CCOc1c(C)ccc(F)c1Nc1nc(N)nc(C(C)(C)F)n1 [Example 70] | 100 | 100 | 100 | – |
| C#CCOc1c(C)ccc(F)c1Nc1nc(N)nc(C(C)(C)F)n1 [Example 71] | 100 | 100 | 100 | – |
| COc1c(Cl)cc(Cl)c(F)c1Nc1nc(N)nc(C2(F)CC2)n1 [Example 72] | 100 | 100 | 100 | – |
| COc1c(Br)cc(C)c(F)c1Nc1nc(N)nc(C(C)(C)F)n1 [Example 73] | 100 | 100 | 100 | – |
| C#CCOc1c(Br)cc(C)c(F)c1Nc1nc(N)nc(C(C)(C)F)n1 [Example 74] | 100 | 100 | 100 | – |
| CC#CCOc1c(Br)cc(C)c(F)c1Nc1nc(N)nc(C(C)(C)F)n1 [Example 75] | 100 | 100 | 100 | – |
| COc1c(Br)cc(Cl)c(F)c1Nc1nc(N)nc(C(C)(C)F)n1 [Example 76] | 100 | 100 | 100 | – |
| C#CCOc1c(Br)cc(Cl)c(F)c1Nc1nc(N)nc(C(C)(C)F)n1 [Example 77] | 100 | 100 | 100 | – |
| CC#CCOc1c(Br)cc(Cl)c(F)c1Nc1nc(N)nc(C(C)(C)F)n1 [Example 78] | 100 | 100 | 100 | – |

| SMILES | herbicidal activity (Echinochloa crus-galli; pre-emergence, 62 g/ha) [%] | herbicidal activity (Setaria faberi; pre-emergence, 62 g/ha) [%] | herbicidal activity (Amaranthus retroflexus; pre-emergence, 62 g/ha) [%] | further results |
| --- | --- | --- | --- | --- |
| CC(C)(F)c1nc(N)nc(Nc2c(F)c(F)cc(Cl)c2OC(F)F)n1 [Example 80] | 100 | 100 | 100 | – |
| COc1c(Br)cc(F)c(F)c1Nc1nc(N)nc(C2(F)CCCC2)n1 [Example 81] | 100 | 100 | – | herbicidal activity (Abutilon theophrasti; pre-emergence, 62 g/ha): 100% |
| CC#CCOc1c(Cl)cc(F)c(F)c1Nc1nc(N)nc(C(C)(C)OC)n1 [Example 82] | 100 | 100 | 100 | – |
| CCOc1c(Cl)cc(Cl)c(F)c1Nc1nc(N)nc(C(C)(C)F)n1 [Example 83] | 100 | 100 | 100 | – |
| CC#CCOc1c(Cl)cc(F)c(F)c1Nc1nc(N)nc(C(C)(F)CCl)n1 (stereo not drawn) [Example 84] | 100 | 100 | – | herbicidal activity (Abutilon theophrasti; pre-emergence, 62 g/ha): 100% |
| CC#CCOc1c(Br)cc(F)c(F)c1Nc1nc(N)nc(C(C)(C)OC)n1 [Example 85] | 100 | 98 | – | herbicidal activity (Abutilon theophrasti; pre-emergence, 62 g/ha): 85% |
| C#CCOc1c(Cl)cc(F)c(F)c1Nc1nc(N)nc(C(C)(F)CCl)n1 (stereo not drawn) [Example 86] | 100 | 100 | 100 | – |
| C#CCOc1c(Br)cc(F)c(F)c1Nc1nc(N)nc(C(C)(C)OC)n1 [Example 87] | 100 | 100 | 100 | – |
| C#CCOc1c(Cl)cc(F)c(F)c1Nc1nc(N)nc(C(C)(C)OC)n1 [Example 88] | 100 | 100 | 100 | – |
| C#CCOc1c(Br)cc(F)c(F)c1Nc1nc(N)nc(C(C)F)n1 (stereo not drawn) [Example 89] | 100 | 100 | 100 | – |
| CC#CCOc1c(Br)cc(F)c(F)c1Nc1nc(N)nc(C(C)F)n1 (stereo not drawn) [Example 90] | 100 | 100 | 100 | – |
| C#CCOc1c(Cl)cc(F)c(F)c1Nc1nc(N)nc(C(C)F)n1 (stereo not drawn) [Example 91] | 100 | 100 | 100 | – |
| CC#CCOc1c(Cl)cc(F)c(F)c1Nc1nc(N)nc(C(C)F)n1 (stereo not drawn) [Example 92] | 100 | 100 | 100 | – |
| CC(C)(F)c1nc(N)nc(Nc2c(F)c(Cl)cc(Cl)c2OC(F)F)n1 [Example 93] | 100 | 100 | 100 | – |
| CC#CCOc1c(Cl)cc(F)c(F)c1Nc1nc(N)nc(C(F)C2CC2)n1 (stereo not drawn) [Example 94] | 100 | 100 | 100 | – |
| CC#CC(C)Oc1c(Br)cc(F)c(F)c1Nc1nc(N)nc(C(C)(C)F)n1 (stereo not drawn) [Example 95] | 100 | 100 | 100 | – |
| C#CC(C)Oc1c(F)cc(F)c(F)c1Nc1nc(N)nc(C2(F)CCCC2)n1 (stereo not drawn) [Example 105] | – | – | – | herbicidal activity (Abutilon theophrasti; pre-emergence, 62,5 g/ha): 100%; herbicidal activity (Echinochloa crus-galli; pre-emergence, 62,5 g/ha): 100%; herbicidal activity (Setaria faberi; pre-emergence, 62,5 g/ha): 100% |
| CC(C)(F)c1nc(N)nc(Nc2c(F)c(F)cc(Br)c2OCF)n1 [Example 106] | – | – | – | herbicidal activity (Abutilon theophrasti; pre-emergence, 62,5 g/ha): 100%; herbicidal activity (Echinochloa crus-galli; pre-emergence, 62,5 g/ha): 100%; herbicidal activity (Setaria faberi; pre-emergence, 62,5 g/ha): 100% |
| Nc1nc(Nc2c(F)c(F)cc(F)c2OCF)nc(C2(F)CCCC2)n1 [Example 107] | – | – | – | herbicidal activity (Abutilon theophrasti; pre-emergence, 62,5 g/ha): 100%; herbicidal activity (Echinochloa crus-galli; pre-emergence, 62,5 g/ha): 100%; herbicidal activity (Setaria faberi; pre-emergence, 62,5 g/ha): 100% |
| CCOc1c(Cl)cc(F)c(F)c1Nc1nc(N)nc(C2(F)CCCCC2)n1 [Example 110] | – | – | – | herbicidal activity (Amaranthus retroflexus; pre-emergence, 62,5 g/ha): 95%; herbicidal activity (Echinochloa crus-galli; pre-emergence, 62,5 g/ha): 100%; herbicidal activity (Setaria faberi; pre-emergence, 62,5 g/ha): 85% |
| C#CCOc1c(Cl)cc(F)c(F)c1Nc1nc(N)nc(C2(F)CCCCC2)n1 [Example 112] | – | – | – | herbicidal activity (Amaranthus retroflexus; pre-emergence, 62,5 g/ha): 95%; herbicidal activity (Echinochloa crus-galli; pre-emergence, 62,5 g/ha): 95%; herbicidal activity (Setaria faberi; pre-emergence, 62,5 g/ha): 90% |
| COc1c(Cl)c(F)c(F)c(F)c1Nc1nc(N)nc(C(C)(C)C)n1 [Example 162] | – | – | – | herbicidal activity (Abutilon theophrasti; pre-emergence, 62,5 g/ha): 95%; herbicidal activity (Echinochloa crus-galli; pre-emergence, 62,5 g/ha): 95%; herbicidal activity (Setaria faberi; pre-emergence, 62,5 g/ha): 100% |
